Measured values taken from article PMC12163635, “Synthetic Retinoids for the Modulation of Genomic and Nongenomic Processes in Neurodegenerative Diseases” (ACS Omega, 2025).

How the values were obtained:
RARγ = molecular target: T1, RARγ (Homo sapiens, UniProt P13631); assay: Fluorescence competition binding assay (displacement of DC271); details: for Kd / Binding KD (± SD) RARγ: 100 nM RAR and DC271 on plate; for Kd: read-out: Binding KD (± SD) RARγ; for ΔGEXP RARγ: experimental binding free energy from K D, ΔGexp=−RT ln K, 298.1 K
T1 construct: His6-3C-SUMO (cleaved yes); made in house; host or cells: E. coli BL21(DE3), pOPINS3C vector
T1 sequence (P13631 185-419 limits assumed): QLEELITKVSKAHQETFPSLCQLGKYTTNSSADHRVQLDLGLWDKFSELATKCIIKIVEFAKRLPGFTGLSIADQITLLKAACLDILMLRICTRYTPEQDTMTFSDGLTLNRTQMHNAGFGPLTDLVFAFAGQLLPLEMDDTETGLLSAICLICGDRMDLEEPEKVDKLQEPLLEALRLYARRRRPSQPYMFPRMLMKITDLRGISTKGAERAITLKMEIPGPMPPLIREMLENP
Procedure: Fluorescence competition assays were employed to determine the relative binding affinities of each synthetic retinoid toward the LBD of the RARs. The assay is based on the potential for competitive displacement of the inherently fluorescent retinoid DC271 from the LBP by a test nonfluorescent synthetic retinoid. Changes in the fluorescence were measured following the addition of a serial dilution of the test compound and the results were plotted to generate a binding curve. […] Assays were performed for both RARα and RARγ. […] Nonlinear least-squares regression analyses were performed to calculate binding affinities and reported as binding K D, the equilibrium dissociation constant between the RAR isoform and the test synthetic retinoid.
RARα/γ proteins were expressed in BL21(DE3) cells (NEB) transformed into pET50b (Novagen) and pOPINS3C vectors, respectively, carrying the gene construct and containing a His6-3C-NusA tag or His6-3C-SUMO tag used for solubility. Transformations were carried out under standard conditions using Quick Transformation Protocol (New England Biolabs). Successful transformants were grown overnight in 2xYT media (Melford) and frozen for storage at −80 °C in 50% glycerol. Expression cultures were inoculated from glycerol stocks into 25 mL of 2xYT media (Melford) with 50 μg/mL kanamycin or 100 μg/mL ampicillin (Sigma-Aldrich) and grown overnight with shaking (37 °C, 150 rpm). The overnight cultures were transferred into 1 L expression flasks (2xYT/ampicillin 100 μg/mL or 2xYT/kanamycin 50 μg/mL) and grown with shaking at 37 °C, 150 rpm. Induction was carried out at an OD600 of 0.6–0.8, with 1 mL of 1 M IPTG (1 mM in culture), before shaking overnight (20 h) at 18 °C. The resulting cultures were spun down into pellets using an Avanti Hi-Speed centrifuge (JLA 8.1000, 4000 rpm, 30 min, 4 °C), before the supernatant was removed and the bacterial pellet were frozen at −80 °C.
RARα/γ (pET50b or pOPINS3C, BL21(DE3) (NEB)) were resuspended from pellet with 20 mL Wash Buffer (20 mM Tris-HCl, 300 mM NaCl and 20 mM imidazole, pH 8) and the resulting suspension was sonicated on ice (40% power, 2 min, repeated twice with 1 min rest in-between) before centrifuging (Avanti Hi-Speed JA25.50, 20,000 rpm, 1 h, 4 °C). Supernatants were clarified using 0.45 μm syringe filters (Thermo Fisher Scientific). Affinity chromatography and size-exclusion (SEC) chromatography were carried out on AKTA Pure25 (Cytiva). Supernatants were loaded onto the HisTrap HP column (5 mL, Cytiva) and washed using 25 mL of wash Buffer. The column was washed with Wash Buffer until UV trace returned to baseline, before RARα/γ was eluted using a gradient of Elution Buffer (20 mM Tris-HCl, 300 mM NaCl, 500 mM imidazole pH 8). The resulting protein-containing fractions were analyzed by SDS-PAGE (200 V, 30 min) using SurePAGE Bis-Tris 12% precast gels (Genscript). Protein concentrations were estimated using absorbance at 280 nm on a DS-11 spectrophotometer (Denovix) with calculated molecular weights and extinction coefficients (Expasy). RAR proteins were cleaved overnight from 3C-NusA tag or 3C-SUMO-His tag using 1 Unit/100 μg protein of HRV3C protease (Thermo Fisher Scientific) at 4 °C. Solution after digestion was loaded onto a HiLoad 16/600 Superdex 75 prep-grade column (Cytiva) and cleaved RARα/γ was separated from the tag based on molecular weight and eluted from the column using SEC Buffer (20 mM Tris-HCl, 300 mM NaCl and 0.5 mM TCEP, pH 8) into 2 mL fractions. The resulting protein fractions were analyzed by SDS PAGE (200 V, 30 min) using SurePAGE Bis-Tris 12% precast gels (Genscript), before being concentrated to 5 mg/mL using centrifugal concentrators (Sartorius) and frozen at −80 °C in small aliquots for use in binding assays.

RARα = molecular target: T2, RARα (Homo sapiens, UniProt P10276); assay: as above; details: stated for the RARs (RARα and RARγ) together; read-out: K D, binding to the RARs
T2 sequence (P10276 182-417): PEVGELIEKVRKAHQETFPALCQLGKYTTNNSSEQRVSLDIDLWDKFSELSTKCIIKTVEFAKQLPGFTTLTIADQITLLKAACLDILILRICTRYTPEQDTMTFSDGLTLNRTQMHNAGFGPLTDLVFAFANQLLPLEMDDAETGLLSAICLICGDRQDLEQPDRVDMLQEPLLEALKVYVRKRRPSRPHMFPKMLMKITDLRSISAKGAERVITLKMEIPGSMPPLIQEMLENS
Method in brief: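 Recombinant RARα and RARγ LBDs (E. coli-expressed, His/NusA or His/SUMO tag removed by 3C cleavage, SEC-purified) were titrated with serially diluted retinoids displacing fluorescent retinoid DC271. Fluorescence change was fitted by nonlinear least-squares regression to give equilibrium dissociation constant KD.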

Compound	Kd (RARγ) [nM]	ΔGEXP RARγ (RARγ)	Kd (RARα) [nM]	Binding KD (± SD) RARγ (RARγ)
CC1(C)CCC(C)(C)c2cc(C#Cc3ccc(C(=O)O)c(F)c3)ccc21 [Compound 13, 2-Fluoro-4-[2-(5,5,8,8-tetramethyl-5,6,7,8-tetrahydronaphthalen-2-yl)ethynyl]benzoic Acid]	18.6	-10.6 kcal/mol	–	–
CC1(C)CCC(C)(C)c2cc(C#Cc3ccc(C(=O)O)cc3F)ccc21 [Compound 14, 3-Fluoro-4-[2-(5,5,8,8-tetramethyl-5,6,7,8-tetrahydronaphthalen-2-yl)ethynyl]benzoic Acid]	16	-10.7 kcal/mol	–	–
CC1(C)CCC(C)(C)c2cc(C#Cc3cc(F)c(C(=O)O)c(F)c3)ccc21 [Compound 15, 2,6-Difluoro-4-[2-(5,5,8,8-tetramethyl-5,6,7,8-tetrahydronaphthalen-2-yl)ethynyl]benzoic Acid]	22.7	-10.4 kcal/mol	–	–
CC1(C)CCC(C)(C)c2cc(C#Cc3ccc(C(=O)O)cc3Cl)ccc21 [Compound 16, 3-Chloro-4-[2-(5,5,8,8-tetramethyl-5,6,7,8-tetrahydronaphthalen-2-yl)ethynyl]benzoic Acid]	24.2	-10.4 kcal/mol	–	–
Cc1cc2c(cc1C#Cc1ccc(C(=O)O)c(F)c1)C(C)(C)CCC2(C)C [Compound 17, 2-Fluoro-4-[2-(3,5,5,8,8-pentamethyl-5,6,7,8-tetrahydronaphthalen-2-yl)ethynyl]benzoic Acid]	20.6	-10.5 kcal/mol	–	–
Cc1cc2c(cc1C#Cc1ccc(C(=O)O)cc1F)C(C)(C)CCC2(C)C [Compound 18, 3-Fluoro-4-[2-(3,5,5,8,8-pentamethyl-5,6,7,8-tetrahydronaphthalen-2-yl)ethynyl]benzoic Acid]	18.6	-10.6 kcal/mol	–	–
Cc1cc2c(cc1C#Cc1cc(F)c(C(=O)O)c(F)c1)C(C)(C)CCC2(C)C [Compound 19, 2,6-Difluoro-4-[2-(3,5,5,8,8-pentamethyl-5,6,7,8-tetrahydronaphthalen-2-yl)ethynyl]benzoic Acid]	33.7	-10.2 kcal/mol	–	–
COc1cc2c(cc1C#Cc1cc(F)c(C(=O)O)c(F)c1)C(C)(C)CCC2(C)C [Compound 22, 2,6-Difluoro-4-[2-(3-methoxy-5,5,8,8-tetramethyl-5,6,7,8-tetrahydronaphthalen-2-yl)ethynyl]benzoic Acid]	355	-8.81 kcal/mol	100 to 1000	–
CC1(C)CCC(C)(C)c2cc(C#Cc3ccc(C(=O)O)cn3)ccc21 [Compound 23, 6-[2-(5,5,8,8-Tetramethyl-5,6,7,8-tetrahydronaphthalen-2-yl)ethynyl]pyridine-3-carboxylic Acid]	24.3	-10.4 kcal/mol	–	–

Further lines, results first:

Kd (RARγ) [nM]	ΔGEXP RARγ (RARγ)	Kd (RARα) [nM]	Binding KD (± SD) RARγ (RARγ)	Compound
254	-9.00 kcal/mol	–	–	CC1(C)CCC(C)(C)c2cc(C#Cc3ccc(C(=O)O)nc3)ccc21 [Compound 24, 5-[2-(5,5,8,8-Tetramethyl-5,6,7,8-tetrahydronaphthalen-2-yl)ethynyl]pyridine-2-carboxylic Acid]
–	Non-competitive Binding	–	noncompetitive binding	CC1(C)CCC(C)(C)c2cc(C#Cc3cnc(C(=O)O)cn3)ccc21 [Compound 25, 5-[2-(5,5,8,8-Tetramethyl-5,6,7,8-tetrahydronaphthalen-2-yl)ethynyl]pyrazine-2-carboxylic Acid]
90.5	-9.61 kcal/mol	–	–	Cc1cc2c(cc1C#Cc1ccc(C(=O)O)cn1)C(C)(C)CCC2(C)C [Compound 26, 6-[2-(3,5,5,8,8-Pentamethyl-5,6,7,8-tetrahydronaphthalen-2-yl)ethynyl]pyridine-3-carboxylic Acid]
2150	-7.76 kcal/mol	> 1000	–	COc1cc2c(cc1C#Cc1ccc(C(=O)O)cn1)C(C)(C)CCC2(C)C [Compound 27, 6-[2-(3-Methoxy-5,5,8,8-tetramethyl-5,6,7,8-tetrahydronaphthalen-2-yl)ethynyl]pyridine-3-carboxylic Acid]
750	-8.36 kcal/mol	100 to 1000	–	Cc1cc2c(cc1C#Cc1ncc(C(=O)O)cn1)C(C)(C)CCC2(C)C [Compound 28, 2-[2-(3,5,5,8,8-Pentamethyl-5,6,7,8-tetrahydronaphthalen-2-yl)ethynyl]pyrimidine-5-carboxylic Acid]
–	Non-competitive Binding	–	noncompetitive binding	COc1cc2c(cc1C#Cc1ncc(C(=O)O)cn1)C(C)(C)CCC2(C)C [Compound 29, 2-[2-(3-Methoxy-5,5,8,8-tetramethyl-5,6,7,8-tetrahydronaphthalen-2-yl)ethynyl]pyrimidine-5-carboxylic Acid]
217	-9.09 kcal/mol	100 to 1000	–	CC1(C)CCC(C)(C)c2nc(C#Cc3ccc(C(=O)O)cc3)cnc21 [Compound 30, 4-[2-(5,5,8,8-Tetramethyl-5,6,7,8-tetrahydroquinoxalin-2-yl)ethynyl]benzoic Acid]
142	-9.38 kcal/mol	100 to 1000	–	CC1(C)CCC(C)(C)c2nc(C#Cc3ccc(C(=O)O)cc3F)cnc21 [Compound 31, 3-Fluoro-4-[2-(5,5,8,8-tetramethyl-5,6,7,8-tetrahydroquinoxalin-2-yl)ethynyl]benzoic Acid]
655	-8.44 kcal/mol	100 to 1000	–	Cc1sc(-c2ccc(C(=O)O)cc2)nc1-c1cnc2c(n1)C(C)(C)CCC2(C)C [Compound 40, 4-[5-Methyl-4-(5,5,8,8-tetramethyl-5,6,7,8-tetrahydroquinoxalin-2-yl)-1,3-thiazol-2-yl]benzoic Acid]
–	Non-competitive Binding	–	noncompetitive binding	Cc1sc(-c2ccc(C(=O)O)cn2)nc1-c1cnc2c(n1)C(C)(C)CCC2(C)C [Compound 41, 6-[5-Methyl-4-(5,5,8,8-tetramethyl-5,6,7,8-tetrahydroquinoxalin-2-yl)-1,3-thiazol-2-yl]pyridine-3-carboxylic Acid]
133	-9.46 kcal/mol	100 to 1000	–	Cc1sc(-c2ccc(C(=O)O)c(F)c2)nc1-c1cnc2c(n1)C(C)(C)CCC2(C)C [Compound 42, 2-Fluoro-4-[5-methyl-4-(5,5,8,8-tetramethyl-5,6,7,8-tetrahydroquinoxalin-2-yl)-1,3-thiazol-2-yl]benzoic Acid]
